Strand notation (5' to 3'): a small letter for the sugar, then the base; units joined by * are phosphorothioate-linked, units joined directly phosphodiester-linked; [ ] holds rarer units or linkages, { } end groups; capitals alone tell only the bases. e = 2'-O-(2-methoxyethyl) (MOE); [5mC] = 5-methylcytosine; d = 2'-deoxy (DNA)

In this data set the test system is human PKK mRNA. Nature of the data set: Antisense inhibition of human PKK mRNA in HepaRG cells, 5,000 nM (Example 2). In kind it is cell-based. Summed up:
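Percent inhibition of PKK mRNA is reported relative to untreated cells, after adjustment for total RNA by RIBOGREEN. Gapmers of 16–20 nucleosides with 2′-MOE wings were delivered at 5,000 nM by electroporation into HepaRG cells and left for roughly 24 hours before RNA isolation.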

Setting [1] is: HepaRG cells, electroporation, 5,000 nM antisense oligonucleotide, approx. 24 hours, primer probe set RTS3454, relative to untreated control cells, Table 11.
Where [2] appears, read: HepaRG cells, 5,000 nM antisense oligonucleotide, 5-10-5 gapmers, Table 16.
[3] abbreviates: Table 13, human PKK mRNA in HepaRG cells, 5-10-5 gapmers.
Where [4] appears, read: Table 8, HepaRG cells, electroporation with 5,000 nM antisense oligonucleotide, approx. 24 hours, PKK mRNA by RT-PCR (RTS3454), relative to untreated control cells.
Setting [5] is: human PKK mRNA, HepaRG cells, 5-10-5 motif oligonucleotides targeting SEQ ID NO: 1 and 10.
[6] abbreviates: HepaRG cells, electroporation with 5,000 nM antisense oligonucleotide, approximately 24 hours, PKK mRNA by RT-PCR (RTS3454), relative to untreated control cells, Table 6 experiment.
Setting [7] is: human PKK mRNA, HepaRG cells, 5,000 nM antisense oligonucleotide, Table 18.
[8] abbreviates: Table 7, HepaRG cells, electroporation with 5,000 nM antisense oligonucleotide, approx. 24 hours, PKK mRNA by RT-PCR (RTS3454), relative to untreated control cells.
The mark [9] stands for this setting: Table 9 experiment, HepaRG cells, 20,000 cells per well, electroporation with 5,000 nM antisense oligonucleotide, approx. 24 hours, PKK mRNA by RT-PCR (RTS3454), relative to untreated control cells.
Setting [10] is: Table 10 experiment, HepaRG cells, 20,000 cells per well, electroporation with 5,000 nM antisense oligonucleotide, approx. 24 hours, PKK mRNA by RT-PCR (RTS3454), relative to untreated control cells.
Setting [11] is: HepaRG cells, electroporation with 5,000 nM antisense oligonucleotide, approximately 24 hours, PKK mRNA by RT-PCR (RTS3454), relative to untreated control cells, Table 5 experiment.
Where [12] appears, read: HepaRG cells, 5,000 nM antisense oligonucleotide, 5-10-5 gapmers, Table 17.
The mark [13] stands for this setting: HepaRG cells, 5,000 nM antisense oligonucleotide, human PKK mRNA, Table 18.

A word on the % inhibition: it is how much of the control response was suppressed. “546690 (e[5mC]*eT*e[5mC]*eT*eG*d[5mC]*dT*dG*dG*dT*dT*dT*dT*dA*dG*eA*e[5mC]*e[5mC]*eA*e[5mC]; antisense) [compound 546690]”: the “% inhibition” value (HepaRG cells, electroporation, 5,000 nM antisense oligonucleotide, approx. 24 hours, primer probe set RTS3454, relative to untreated control cells, Table 12) came out at 44%. On to “547524 (antisense e[5mC]*eA*eT*eT*eG*dT*d[5mC]*dA*dG*d[5mC]*d[5mC]*d[5mC]*d[5mC]*dT*dG*eG*eT*eT*eA*e[5mC]) [compound 547524]”, for which the “% inhibition” value under setting [1] was found to be 58%. “546873 (e[5mC]*eA*eA*eT*eA*dT*d[5mC]*dA*d[5mC]*dT*dG*dT*dA*d[5mC]*d[5mC]*eT*eA*eT*eA*eA; antisense) [compound 546873]”: where the note is “human PKK mRNA in HepaRG cells, 5-10-5 gapmers, Table 14”, the “% inhibition” value came to 34%. Take “547685 (antisense eA*eT*eA*eA*e[5mC]*dT*dA*dT*dA*dT*d[5mC]*dA*d[5mC]*dT*dG*eT*e[5mC]*e[5mC]*eT*eA) [compound 547685]”: under setting [2], the “% inhibition” value is listed as 35%. Turning to “546845 (eT*eG*eT*e[5mC]*e[5mC]*dT*dA*dT*dA*dT*d[5mC]*dA*d[5mC]*dT*dG*eT*e[5mC]*e[5mC]*eT*eA; antisense) [compound 546845]”, the “% inhibition” value under setting [3] was 75%.

On to “547441 (antisense eG*eG*eT*eG*eT*d[5mC]*d[5mC]*dT*dA*dT*dG*dA*dG*dT*dG*eA*e[5mC]*e[5mC]*e[5mC]*eT) [compound 547441]”, for which the “% inhibition” value under setting [4] was found to be 62%. Turning to “547657 (eA*e[5mC]*eA*eA*eT*dA*dT*d[5mC]*dA*d[5mC]*dT*dG*dT*d[5mC]*d[5mC]*eT*eA*eT*eA*eA; antisense) [compound 547657]”, under setting [5], the “% inhibition” value was determined as 43%. For the substance “547332 (antisense e[5mC]*eG*eA*eT*eG*dG*d[5mC]*dA*dA*dG*d[5mC]*dA*d[5mC]*dT*dT*eA*eT*eT*eT*eG) [compound 547332]”, under setting [6], the “% inhibition” value is recorded as 44%.

As for “548771 (antisense eA*eT*eA*eA*d[5mC]*dA*dG*dT*dA*dT*d[5mC]*dA*d[5mC]*eT*eG*eT*e[5mC]) [compound 548771]”, the “% inhibition” value under setting [7] was 62%. Turning to “547378 (eT*eA*e[5mC]*eA*eT*dT*dT*dG*dT*dA*dT*dA*dG*dA*dA*eT*eG*eT*eA*eA; antisense) [compound 547378]”, under setting [8], the “% inhibition” value stood at 0%. “548783 (antisense eA*e[5mC]*e[5mC]*eT*dA*dT*dA*dA*d[5mC]*dT*dA*dT*dA*eA*e[5mC]*eA*eA) [compound 548783]”: the “% inhibition” value under setting [7] came to 0%. In the case of “546350 (antisense e[5mC]*e[5mC]*e[5mC]*eT*eG*d[5mC]*dG*dG*dG*d[5mC]*dA*d[5mC]*dA*dG*d[5mC]*e[5mC]*eT*eT*e[5mC]*eA) [compound 546350]”, the “% inhibition” value by setting is: under setting [9], 88%; under setting [10], 74%.

On to “547499 (antisense e[5mC]*eT*e[5mC]*eT*eG*dG*dA*d[5mC]*dT*dG*d[5mC]*dT*dT*d[5mC]*dT*e[5mC]*eA*eT*eG*e[5mC]) [compound 547499]”, for which the “% inhibition” value under setting [1] was determined as 65%. On to “546749 (eG*e[5mC]*eT*eG*eG*dT*d[5mC]*d[5mC]*dT*dT*dG*dA*dA*d[5mC]*d[5mC]*e[5mC]*e[5mC]*eG*eT*eG; antisense) [compound 546749]”, for which the “% inhibition” value under setting [3] is recorded as 53%. As for “547269 (eA*eA*eT*eG*eA*dA*d[5mC]*dG*dG*dT*d[5mC]*dT*dT*d[5mC]*dA*eA*eG*e[5mC]*eT*eG; antisense) [compound 547269]”, under setting [11], the “% inhibition” value is on record as 56%.

With “546285 (antisense eG*eT*eT*eA*e[5mC]*dA*d[5mC]*dA*dA*dT*d[5mC]*dT*d[5mC]*dA*dA*eA*eG*eA*eG*eT) [compound 546285]”, the “% inhibition” value under setting [4] was found to be 76%. For “547561 (eA*eA*eG*eG*eG*dA*dA*dA*dT*dT*dA*dG*dA*dG*dG*e[5mC]*eA*eG*eG*e[5mC]; antisense) [compound 547561]”, the “% inhibition” value under setting [3] is 57%. As to “546204 (antisense eA*eA*eT*eA*eG*dG*d[5mC]*dA*dA*dT*dT*dG*dT*dT*d[5mC]*e[5mC]*eG*eG*eT*eA) [compound 546204]”, the “% inhibition” value under setting [6] is on record as 91%.

In the case of “546735 (e[5mC]*eA*eA*e[5mC]*e[5mC]*dT*dG*dT*d[5mC]*d[5mC]*dA*dT*dT*d[5mC]*d[5mC]*e[5mC]*eT*eG*eG*eG; antisense) [compound 546735]”, the “% inhibition” value under setting [3] was found to be 46%. Turning to “546277 (eT*eG*eT*eG*eT*d[5mC]*d[5mC]*d[5mC]*dA*dT*dA*d[5mC]*dG*d[5mC]*dA*eA*eT*e[5mC]*e[5mC]*eT; antisense) [compound 546277]”, under setting [4], the “% inhibition” value came to 90%. For the substance “547467 (antisense eT*eG*eG*eT*eA*dT*dA*dA*dA*dT*dT*dG*dT*dG*d[5mC]*eT*eT*eG*eT*eG) [compound 547467]”, the “% inhibition” value by setting is: under setting [9], 80%; under setting [10], 65%. For “547322 (antisense e[5mC]*eT*eT*e[5mC]*eA*dA*dG*dG*dA*dA*dT*dG*dT*d[5mC]*d[5mC]*eA*eG*eA*eA*eA) [compound 547322]”, the “% inhibition” value under setting [6] is 65%. In the case of “547625 (antisense e[5mC]*eA*eG*eT*eA*dT*d[5mC]*dA*d[5mC]*dT*dG*dT*d[5mC]*d[5mC]*dT*eA*eT*eG*eT*e[5mC]) [compound 547625]”, the “% inhibition” value under setting [5] is recorded as 79%.

On to “548733 (DNA e[5mC]*eA*e[5mC]*eT*dG*dT*dA*d[5mC]*dT*dA*dG*dT*dT*dT*e[5mC]*e[5mC]*eT; antisense) [compound 548733]”, for which the “% inhibition” value under setting [7] turned out to be 84%. Consider “546977 (eG*eT*e[5mC]*e[5mC]*e[5mC]*dG*dA*dA*dG*dA*dG*dT*d[5mC]*dA*dA*eG*eT*e[5mC]*e[5mC]*eA; antisense) [compound 546977]”, for which, under setting [2], the “% inhibition” value worked out at 76%.

For the substance “547776 (antisense eG*eG*eA*eG*eA*dG*dA*dG*dA*d[5mC]*dG*dG*d[5mC]*dA*d[5mC]*e[5mC]*e[5mC]*eT*eG*eT) [compound 547776]”, the “% inhibition” value under setting [12] is 48%. For the substance “548730 (DNA eT*eG*eT*eA*d[5mC]*dT*dA*dG*dT*dT*dT*d[5mC]*d[5mC]*dT*eA*eT*eA; antisense) [compound 548730]”, the “% inhibition” value under setting [7] stood at 0%.

As for “547017 (eG*eG*eT*eA*eG*dG*dT*dG*dG*dT*dG*dG*dG*dA*dT*eT*eG*eG*eT*eG; antisense) [compound 547017]”, under setting [12], the “% inhibition” value is 61%.

Regarding “547405 (e[5mC]*eA*eA*eA*eG*dT*d[5mC]*dA*dA*d[5mC]*dT*d[5mC]*d[5mC]*d[5mC]*dG*eG*eG*eT*eA*eA; antisense) [compound 547405]”, the “% inhibition” value under setting [8] is 47%. Take “547504 (antisense eG*eA*eA*e[5mC]*eT*d[5mC]*dA*dG*dG*dT*dT*dG*dT*dA*dA*eA*eA*eA*eT*eT) [compound 547504]”: the “% inhibition” value under setting [1] was 37%. On to “547523 (antisense eT*eT*eG*eT*e[5mC]*dA*dG*d[5mC]*d[5mC]*d[5mC]*d[5mC]*dT*dG*dG*dT*eT*eA*e[5mC]*eG*eG) [compound 547523]”, for which the “% inhibition” value under setting [1] is reported as 69%. As to “548719 (DNA eG*eT*eA*d[5mC]*dT*dA*dG*dT*dT*dT*d[5mC]*d[5mC]*dT*eA*eT*eA*eA; antisense) [compound 548719]”, the “% inhibition” value under setting [13] amounted to 0%. For the substance “547574 (eA*e[5mC]*eA*e[5mC]*eG*d[5mC]*dA*d[5mC]*dA*dG*dG*dT*d[5mC]*d[5mC]*d[5mC]*eA*eG*eG*eG*e[5mC]; antisense) [compound 547574]”, the “% inhibition” value under setting [3] was found to be 51%. As to “547696 (antisense e[5mC]*eA*e[5mC]*eT*eG*dT*d[5mC]*d[5mC]*dT*dA*dT*dA*dA*d[5mC]*dT*eA*eT*eT*eA*e[5mC]) [compound 547696]”, under setting [2], the “% inhibition” value is 26%.

“548725 (DNA eA*eT*e[5mC]*dA*d[5mC]*dT*dG*dT*dA*d[5mC]*dT*dA*dG*eT*eT*eT*e[5mC]; antisense) [compound 548725]”: the “% inhibition” value under setting [13] was 32%.

For “547569 (eA*e[5mC]*eT*eA*e[5mC]*d[5mC]*dA*dT*dT*dT*dG*dG*dG*dT*dT*eG*eG*eT*eA*eG; antisense) [compound 547569]”, under setting [3], the “% inhibition” value was 9%. On to “546838 (e[5mC]*eT*eA*eT*eA*dA*d[5mC]*dT*d[5mC]*dT*dA*dA*d[5mC]*dA*dG*eT*eA*eT*e[5mC]*eA; antisense) [compound 546838]”, for which the “% inhibition” value under setting [3] worked out at 43%. For the substance “547286 (antisense eA*eG*eA*e[5mC]*eA*dT*d[5mC]*d[5mC]*dA*d[5mC]*dA*dG*dG*dA*dA*eA*e[5mC]*eT*eG*eT) [compound 547286]”, the “% inhibition” value under setting [11] is reported as 68%. For “547333 (antisense eT*eG*eT*e[5mC]*eT*d[5mC]*dG*dA*dT*dG*dG*d[5mC]*dA*dA*dG*e[5mC]*eA*e[5mC]*eT*eT) [compound 547333]”, the “% inhibition” value under setting [6] is given as 76%.

(Values after patent US11840686B2, “Modulation of prekallikrein (PKK) expression” (Ionis Pharmaceuticals, Inc., priority 2013, dated 2023).)
